Assays:
[1] = Pyrene-labeled Lipid II fluorescence quenching assay; assay type: binding; conditions: 50 μM DOPC LUVs with 0.5 mol % pyrene-labeled Lipid II, 20°C, ex 350 nm
Experimental: The effects of antibiotics on pyrene-labeled Lipid II were measured using 50 μm DOPC-based large unilamellar vesicles (LUVs) containing 0.5 mol % pyrene-labeled Lipid II ([Breukink et al., 2003]). Briefly, the LUVs were added to a quartz cuvette and titrated with nisin, brevibacillin, or brevibacillin 2V with stirring at 20°C. The fluorescence spectra were recorded between 360 and 600 nm (λex350 nm) using a Cary Eclipse Fluorescence Spectrophotometer (Agilent, United States).

[2] = Circular dichroism assay, 7-Lipid II; assay type: binding; conditions: 10 mM boric acid-NaOH pH 7.5, 0.1% CHAPS, 20°C; for conformational change in presence of DOPC: antibiotic 50 μM, DOPC vesicles 100 μM; for conformational change in presence of 7-Lipid II: antibiotic and 7-Lipid II 50 μM
Experimental: Lipid II and 7-Lipid II (a heptaprenyl version of Lipid II) were synthesized and purified as described in a previous study ([Breukink et al., 2003]; Figures 2A,B). Purified Lipid II and 7-Lipid II were dissolved in CHCl3/MeOH (2:1) and stored at −20°C until use, and the concentration was determined after destruction to inorganic phosphate according to [Rouser et al. (1970)]. 7-Lipid II was only used in circular dichroism assays, while wild-type Lipid II was used in all of the other assays.
7-Lipid II and 1,2-dioleoyl-sn-glycero-3-phosphocholine (DOPC) were resuspended in 10 mm boric acid-NaOH pH 7.5 containing 0.1% CHAPS. The final concentration of antibiotics and 7-Lipid II was adjusted to 50 μm, while a 100 μm final concentration of DOPC vesicles was used. After added the samples to a quartz cuvette with a path length of 1 mm, the CD spectra were recorded with a Jasco-810 CD spectropolarimeter at 20°C. The ellipticity was recorded between 185 nm and 260 nm at a 0.2-nm step size with 1-s response time. The spectra were averaged over five recordings with a scanning speed of 50 nm/min.

[3] = tested on: S. aureus ATCC15975 (MRSA) membrane; test: DiSC3(5) membrane potential assay; assay type: cell-based, Staphylococcus aureus; conditions: 2 × MIC; for rank order of membrane disruption capacity: correlates with calculated hydrophobicity
Experimental: Staphylococcus aureus ATCC15975 (MRSA) was grown to an OD600 of 0.8. The culture was pelleted at 5,000 × g for 5 min and washed three times in 10 mm HEPES with 10 mm glucose (pH 7.2). The cell density was normalized to an OD600 of 0.2, loaded with 2 μm DiSC3(5) dye, and incubated for 20 min in the dark for probe fluorescence to stabilize. After incubation, KCl was added to the cell suspension at a final concentration of 100 mm. Subsequently, the cell suspension was added to a 96-well microplate and incubation for 5 min; after that, antibiotics were added at a final concentration of 2 × MIC. Fluorescence was monitored for 25 min, with the antibiotics added after ~20 s. The excitation and emission wavelengths on the fluorescence spectrometer were adjusted to 622 nm and 670 nm, respectively. Representative examples from three technical replicates are shown.

[4] = Carboxyfluorescein leakage assay, DOPC LUVs with 0.1% Lipid II; conditions: peptide 100 nM; for membrane permeabilization (CF leakage), Lipid II containing LUVs: LUVs 5 μM, DOPC plus 0.1% Lipid II, 25 mM Tris-HCl, 150 mM NaCl, pH 7.5, ex 492/em 515 nm
Experimental: LUVs that contain DOPC or DOPC plus 0.1% Lipid II were prepared for a carboxyfluorescein (CF) leakage assay. The lipids were dried by a nitrogen stream and followed under vacuum for 2 h. After that, the lipids were hydrated by adding 25 mm Tris-HCl, 150 mm NaCl, and pH 7.5 containing 50 mm CF. The suspensions were frozen and thawed 10 times, followed by extrusion through 200nm membrane filters (Whatman Nuclepore, Track-Etch Membranes) 10 times. The excess dye was removed by loading vesicles on a spin column (Sephadex G50) for 2 min at 500 × g. Subsequently, the vesicles were diluted to 5 μm, and the brevibacillins-induced release of CF from the vesicles was monitored by measuring the increase in fluorescence intensity. The maximum fluorescence was reached by adding 10 μl of 20% Triton X-100. A Cary Eclipse Fluorescence Spectrophotometer (Agilent, United States) was used to determine the changes of fluorescence signals, and the excitation wavelength and emission wavelength were adjusted to 492 nm and 515 nm, respectively.

[5] = ref Zhao et al., 2021; cited from earlier work
[6] = tested on: S. aureus ATCC15975 (MRSA); test: Time-killing assay; assay type: cell-based, Staphylococcus aureus; conditions: for killing kinetics / capacity, in words: 10 × MIC (brevibacillins 20 μg/ml; nisin 40 μg/ml)
Experimental: This assay was performed according to a previously described procedure ([Ling et al., 2015]; [Zhao et al., 2020b]). An overnight culture of cells [S. aureus ATCC15975 (MRSA)] was diluted 50-fold in MHB and incubated at 37°C with aeration at 220 rpm. Bacteria were grown to an OD600 of 0.5, and then, the concentration of cells was adjusted to ≈ 5 × 10^6 cells per ml. Bacteria were then challenged with nisin (40 μg/ml), brevibacillin (20 μg/ml), brevibacillin V (20 μg/ml), brevibacillin I (20 μg/ml), or brevibacillin 2V (20 μg/ml) in culture tubes at 37°C and 220 rpm (peptides at 10 × MIC, a desirable concentration at the site of infection). Bacteria not treated with peptides were used as negative controls. At desired time points, 200 μl aliquots were taken, centrifuged at 8,000 g for 2 min, and resuspended in 200 μl of MHB. 10-fold serially diluted samples were plated on MHA plates. After incubated at 37°C overnight, colonies were counted and c.f.u. per ml was calculated. Each experiment was performed in triplicate.

Substance | excimer fluorescence (about 490 nm) [1] | pyrene monomer fluorescence [1] | conformational change in presence of DOPC [2] | conformational change in presence of 7-Lipid II [2] | speed of membrane permeabilization [3] | rank order of membrane disruption capacity [3] | percentage of CF leakage, comparison in words ([4]; LUVs with 0.1% Lipid II) | membrane permeabilization (CF leakage), Lipid II containing LUVs [4] | rank order of calculated hydrophobicity [5] | killing kinetics / capacity, in words ([6]; MHB, 37°C) | time to complete killing of all cells ([6]; 10 × MIC (nisin 40 μg/ml; brevibacillins 20 μg/ml), ≈ 5 × 10^6 cells per ml, MHB, 37°C, 220 rpm, triplicate) [h] | bactericidal or bacteriostatic action ([6]; S. aureus (MRSA), 10 × MIC)
Brevibacillin | no excimer fluorescence could be detected | decreased the monomer fluorescence | no change was apparent | significant conformational change | appeared to act faster than brevibacillin 2V and the well-known pore-forming antibiotic nisin | brevibacillin I > brevibacillin > brevibacillin V > brevibacillin 2V | higher percentage of CF leakage than brevibacillin 2V | rapid membrane permeabilization | brevibacillin I > brevibacillin > brevibacillin V > brevibacillin 2V | intermediate killing capacity | ≤ 2 | –
Brevibacillin 2V | no excimer fluorescence could be detected | decreased the monomer fluorescence | no change was apparent | significant conformational change | – | brevibacillin I > brevibacillin > brevibacillin V > brevibacillin 2V | – | rapid membrane permeabilization | brevibacillin I > brevibacillin > brevibacillin V > brevibacillin 2V | slowest killing capacity among brevibacillins, with similar killing kinetics as nisin | – | bactericidal antimicrobial agent

From paper PMC8322648, “Brevibacillin 2V Exerts Its Bactericidal Activity via Binding to Lipid II and Permeabilizing Cellular Membranes” (Frontiers in Microbiology, 2021)
